Entries after “also recorded” stand apart in the source; their conditions may differ.
Legend:
transketolase [1] = molecular target: T1, transketolase (Mus musculus, UniProt P40142); experiment: transketolase activity in blood and tissues of N3PT-treated mice; format: in vivo
T1 construct: from tissue; host or cells: whole blood, spleen, brain and other tissues of Balb C nude mice; also xenograft tumours
T1 sequence (P40142 1-623): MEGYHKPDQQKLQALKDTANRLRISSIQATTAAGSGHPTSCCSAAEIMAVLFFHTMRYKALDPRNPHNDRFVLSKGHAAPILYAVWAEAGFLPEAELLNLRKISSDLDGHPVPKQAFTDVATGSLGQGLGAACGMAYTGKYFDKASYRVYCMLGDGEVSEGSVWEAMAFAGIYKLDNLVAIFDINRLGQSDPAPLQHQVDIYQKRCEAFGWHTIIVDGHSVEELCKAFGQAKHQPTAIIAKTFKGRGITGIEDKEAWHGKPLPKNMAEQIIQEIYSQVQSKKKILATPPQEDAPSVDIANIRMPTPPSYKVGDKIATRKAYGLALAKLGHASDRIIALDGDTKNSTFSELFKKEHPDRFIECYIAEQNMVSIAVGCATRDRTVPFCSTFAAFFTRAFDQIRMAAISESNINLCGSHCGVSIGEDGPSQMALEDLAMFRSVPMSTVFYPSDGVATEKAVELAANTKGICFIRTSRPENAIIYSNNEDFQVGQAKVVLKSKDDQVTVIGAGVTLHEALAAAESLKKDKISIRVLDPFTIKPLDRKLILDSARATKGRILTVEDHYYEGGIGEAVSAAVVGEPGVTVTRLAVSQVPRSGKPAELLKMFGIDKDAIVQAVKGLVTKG
Description: (§1) […] Blood samples were taken (40 μl whole blood) serially or from sacrificed animals at the end of a study. Tissues, including tumor, brain, heart, kidney, liver, lung, spleen, were taken and flash frozen in liquid nitrogen or on dry ice and stored at −80° C. until assay. Blood was diluted into lysis buffer and dissolved. Tissues were suspended in lysis buffer and homogenized with PowerGen 125 (Fisher Scientific) while being submerged in an ice-water bath.
(§2) Transketolase assays were performed as in Example 2. The lysate was used right away or flash frozen and stored at −80° C. until assay. The protein concentration in the lysate was determined using a Bradford assay (BioRad) with BSA as a standard. The enzymatic velocity was normalized to the total protein concentration for inter-sample comparisons. In order to obtain reliable results across samples, it was important to have similar starting protein concentrations (such as within 30%). This was achieved by weighing the tissue before lysis so that the suspensions contained similar tissue/ml lysis buffer for all samples.

transketolase [2] = experiment: as above; format: in vivo, mouse; conditions: 200 mg/kg/day, relative to vehicle
Description: as §1, §2

[3] = brain penetration after a single dose in mice; format: in vivo, mouse
Description: To assess the ability of N3PT to inhibit transketolase in vivo, a single dose of N3PT was administered to Balb C nude mice (ip, 100 mg/kg), and blood and tissue samples were collected over time and enzymatic activities determined. Blood samples were taken (40 μl whole blood) serially or from sacrificed animals at the end of a study. Tissues, including tumor, brain, heart, kidney, liver, lung, spleen, were taken and flash frozen in liquid nitrogen or on dry ice and stored at −80° C. until assay. Blood was diluted into lysis buffer and dissolved. Tissues were suspended in lysis buffer and homogenized with PowerGen 125 (Fisher Scientific) while being submerged in an ice-water bath.

[4] = molecular target: purified apotransketolase; experiment: inhibition of purified apotransketolase; format: biochemical
From the text: N3PT is a thiamine (vitamin B1) derivative. Thiamine pyrophosphate (TPP) is a co-factor for catalysis by the enzyme transketolase (as well as for the enzymes kGDH and PDH). […] A standard method for isolating and measuring the IC50 of apotransketolase is described in Konig et al., J. Biol. Chem. 269: 10879-82 (1994).

Cc1ccc(C[n+]2csc(CCO)c2C)c(N)n1 [N3PT, 3-[(2-amino-6-methyl-3-pyridinyl)methyl]-5-(2-hydroxyethyl)-4-methyl thiazolium]
transketolase activity in whole blood (transketolase [1]; 200 mg/kg/day, relative to vehicle): reduced; also recorded: selectively inhibited
sensitivity of spleen transketolase to N3PT on low-thiamine diet (transketolase [1]; diets with 16.5, 5, 1 or 0 mg/kg thiamine, N3PT ip, 12 hours later): enhances the sensitivity to N3PT inhibition of TK in spleen; also recorded: more sensitive to TK inhibition by N3PT
selectivity of transketolase inhibition in vivo versus kGDH and G6PDH (transketolase [1]; single dose 100 mg/kg body weight, mouse, 100 mg/kg): selective inhibitor of transketolase in vivo; also recorded: selectively inhibits transketolase
duration of transketolase inhibition in vivo (transketolase [1]; single dose 100 mg/kg i.p., blood and spleen, 0-120 hr, 100 mg/kg): potent and long-lasting transketolase inhibitor in vivo
transketolase activity in tumors (transketolase [2]): reduced
brain penetration [3]: little or no significant brain penetration
IC50 [4]: 21 nM

Reference: patent US20080234304A1, “N3-Pyridyl-Thiamine And Its Use In Cancer Treatments” (AVEO PHARMACEUTICALS, INC., priority 2004, published 2008)
